Assay results: patent publication US20140303092A1 (CHIMERIX, INC., priority 2011, published 2014)

Assay: Study HDP-CDV-201: safety and tolerability (adverse events, laboratory abnormalities, discontinuations)
Assay type: in vivo, human (adult allogeneic HSCT recipients)
Details: for Subjects with Neutrophils <0.5 GI/L / Subjects with Neutrophils <1.0-0.5 GI/L / Subjects with Neutrophils <1.5-1 GI/L / Subjects with Neutrophils <LLN-1.5 GI/L / Subjects with Platelets <25 GI/L / Subjects with Platelets <50-25 GI/L / Subjects with Platelets <75-50 GI/L / Subjects with Platelets <LLN-75 GI/L / Subjects with Serum Creatinine >1 × ULN-[…] ULN / Subjects with Serum Creatinine >3 × ULN-6 × ULN / Subjects with Serum Creatinine >6 × ULN / Subjects with Serum Creatinine >[…] ULN-3 × ULN / Subjects with WBC <1 GI/L / Subjects with WBC <2-1 GI/L / Subjects with WBC <3-2 GI/L / Subjects with WBC <LLN-3 GI/L / Subjects with Hemoglobin <6.5 g/dL / Subjects with Hemoglobin <8-6.5 g/dL / Subjects with Hemoglobin <10-8 g/dL / Subjects with Hemoglobin <LLN-10 g/dL: any time during therapy; for Subjects Receiving Aldesleukin / Subjects Receiving Blood and Related Products / Subjects Receiving Blood, Whole / Subjects Receiving Filgrastim / Subjects Receiving Granulocyte Colony Stimulating Factor / Subjects Receiving Pegfilgrastim / Subjects Receiving Platelets / Subjects Receiving Red Blood Cells / Subjects Receiving Red Blood Cells, Concentrated / Subjects Receiving Sargramostim: during the Treatment Period; for Cause of death: individual subjects who died
Procedure: Clinical Studies of HDP-CDV were performed and described in detail in the following Examples. For example, HDP-CDV-201 is a placebo-controlled, dose-escalating trial in HSCT CMV (R+) recipients, evaluating the ability of HDP-CDV to prevent or control CMV infection was carried out. Five cohorts were established in which participants or subjects received either placebo or the HDP-CDV orally, in doses ranging from 40 mg weekly (QW) to 200 mg twice weekly (BIW). Subjects who were post-HSCT were enrolled at the time of engraftment and randomized to HDP-CDV or placebo (3 to 1 ratio) and received blinded therapy until approximately 100 day post-transplantation. HDP-CDV doses were 40 mg QW, 100 mg QW, 200 mg QW, 200 mg BIW and 100 mg BIW. Escalation to the next dose was decided by the data monitoring committee after review of the safety data from the previous Cohort. Subjects who developed CMV disease or CMV infection requiring pre-emptive therapy with local standard of care were discontinued from blinded therapy and followed for 4 weeks. Subjects who completed treatment with blinded therapy were followed for 8 weeks post-therapy.
Data from Study HDP-CDV-201 also provided characterization of the safety and tolerability profile of HDP-CDV when administered for the prevention or control of CMV infection in high risk (R^+) post-HSCT adult subjects.
The Safety population (SAFETY) included all randomized subjects who took at least one dose of study treatment. This population was used to summarize safety outcomes based on the treatment actually received, in cases where a subject was treated contrary to the randomization schedule.
The safety and tolerability profile of HDP-CDV, including subject demographics and Baseline characteristics; the AE profile; and laboratory abnormalities of interest were analyzed in the cohorts followed in this investigation.
Subjects completing the treatment period received a full course of study medication; those completing the entire study attended visits through 8 weeks of follow up. Subjects who discontinued treatment may have done so for protocol specified reasons (e.g. development of clinically significant CMV infection requiring preemptive treatment with excluded anti-CMV medications) or for other reasons (e.g., withdrawal, adverse events, loss to follow-up). The disposition of subjects in Study HDP-CDV-201 during the double-blind, placebo-controlled treatment period (through Week 11) is listed by dosing Cohort in TABLE 23.
Adverse events were examined by severity to ensure that all safety signals were identified in this study population. Because of the frequency of events in HSCT recipients, particular attention was given to evaluation of Grade 3 […], 4 (severe), and 5 (fatal) adverse events.
Only those preferred terms for which at least one Grade 3 or higher event was experienced in any treatment group are listed. Cytomegalovirus-related AEs are excluded from this analysis.
HDP-CDV is a lipid conjugate of CDV. Because CDV is known to have adverse effects on renal function and bone marrow, decreased GFR and persistent neutropenia were identified as AEs of special interest. Key renal and hematological (TABLE 30) laboratory parameters were measured and listed below by Study HDP-CDV-201 treatment groups. TABLE 30 includes abnormal levels of serum creatinine, neutrophils, platelets, WBCs, and hemoglobin and includes data at Screening and during the treatment period.
A common metric for unit based dosing of medications is by weight (mg/kg). When the distribution of weights was examined for all subjects participating in the study, the median was 78 kg and the lower 25th percentile weight was approximately 65 kg, which translates to a cut-off of ˜3 mg/kg for a 200 mg total weekly dose. Based upon this approach, a cut-off of 3 mg/kg was used to assess the frequency of diarrhea and associated GI AEs reported for the subjects in Cohorts 3 or 4a (TABLE 40).

## CCCCCCCCCCCCCCCCOCCCOP(=O)(O)COC(CO)Cn1ccc(N)nc1=O (stereo not shown) [HDP-CDV]
100 mg QW
  Subjects with Neutrophils <0.5 GI/L: 3 (11.1%)
  Subjects with Neutrophils <1.0-0.5 GI/L: 2 (7.4%)
  Subjects with Neutrophils <1.5-1 GI/L: 9 (33.3%)
  Subjects with Neutrophils <LLN-1.5 GI/L: 1 (3.7%)
  Subjects with Platelets <25 GI/L: 4 (14.8%)
  Subjects with Platelets <50-25 GI/L: 6 (22.2%)
  Subjects with Platelets <75-50 GI/L: 6 (22.2%)
  Subjects with Platelets <LLN-75 GI/L: 7 (25.9%)
  Subjects with Serum Creatinine >1 × ULN-[…] ULN: 16 (59.3%)
  Subjects with Serum Creatinine >3 × ULN-6 × ULN: 0
  Subjects with Serum Creatinine >6 × ULN: 0
  Subjects with Serum Creatinine >[…] ULN-3 × ULN: 5 (18.5%)
  Subjects with WBC <1 GI/L: 3 (11.1%)
  Subjects with WBC <2-1 GI/L: 4 (14.8%)
  Subjects with WBC <3-2 GI/L: 6 (22.2%)
  Subjects with WBC <LLN-3 GI/L: 4 (14.8%)
  Subjects Receiving Aldesleukin: 0
  Subjects Receiving Blood and Related Products: 0
  Subjects Receiving Blood, Whole: 1 (3.7%)
  Subjects Receiving Filgrastim: 4 (14.8%)
  Subjects Receiving Granulocyte Colony Stimulating Factor: 0
  Subjects Receiving Pegfilgrastim: 0
  Subjects Receiving Platelets: 3 (11.1%)
  Subjects Receiving Red Blood Cells: 2 (7.4%)
  Subjects Receiving Red Blood Cells, Concentrated: 3 (11.1%)
  Subjects Receiving Sargramostim: 0
200 mg BIW
  Subjects with Hemoglobin <6.5 g/dL: 0
  Subjects with Hemoglobin <8-6.5 g/dL: 2 (7.1%)
  Subjects with Hemoglobin <10-8 g/dL: 12 (42.9%)
  Subjects with Hemoglobin <LLN-10 g/dL: 12 (42.9%)
  Subjects with Neutrophils <0.5 GI/L: 0
  Subjects with Neutrophils <1.0-0.5 GI/L: 4 (14.3%)
  Subjects with Neutrophils <1.5-1 GI/L: 7 (25.0%)
  Subjects with Neutrophils <LLN-1.5 GI/L: 3 (10.7%)
  Subjects with Platelets <25 GI/L: 8 (28.6%)
  Subjects with Platelets <50-25 GI/L: 8 (28.6%)
  Subjects with Platelets <75-50 GI/L: 2 (7.1%)
  Subjects with Platelets <LLN-75 GI/L: 6 (21.4%)
  Subjects with Serum Creatinine >1 × ULN-[…] ULN: 11 (37.9%)
  Subjects with Serum Creatinine >3 × ULN-6 × ULN: 0
  Subjects with Serum Creatinine >6 × ULN: 0
  Subjects with Serum Creatinine >[…] ULN-3 × ULN: 1 (3.4%)
  Subjects with WBC <1 GI/L: 2 (7.1%)
  Subjects with WBC <2-1 GI/L: 5 (17.9%)
  Subjects with WBC <3-2 GI/L: 9 (32.1%)
  Subjects with WBC <LLN-3 GI/L: 3 (10.7%)
  Subjects Receiving Aldesleukin: 0
  Subjects Receiving Blood and Related Products: 0
  Subjects Receiving Blood, Whole: 0
  Subjects Receiving Filgrastim: 5 (16.7%)
  Subjects Receiving Granulocyte Colony Stimulating Factor: 1 (3.3%)
  Subjects Receiving Pegfilgrastim: 1 (3.3%)
  Subjects Receiving Platelets: 6 (20.0%)
  Subjects Receiving Red Blood Cells: 4 (13.3%)
  Subjects Receiving Red Blood Cells, Concentrated: 5 (16.7%)
  Subjects Receiving Sargramostim: 0
200 mg QW
  Subjects with Hemoglobin <6.5 g/dL: 0
  Subjects with Hemoglobin <8-6.5 g/dL: 5 (13.2%)
  Subjects with Hemoglobin <10-8 g/dL: 19 (50.0%)
  Subjects with Hemoglobin <LLN-10 g/dL: 13 (34.2%)
  Subjects with Neutrophils <0.5 GI/L: 2 (5.3%)
  Subjects with Neutrophils <1.0-0.5 GI/L: 7 (18.4%)
  Subjects with Neutrophils <1.5-1 GI/L: 11 (28.9%)
  Subjects with Neutrophils <LLN-1.5 GI/L: 1 (2.6%)
  Subjects with Platelets <25 GI/L: 7 (18.4%)
  Subjects with Platelets <50-25 GI/L: 13 (34.2%)
  Subjects with Platelets <75-50 GI/L: 7 (18.4%)
  Subjects with Platelets <LLN-75 GI/L: 7 (18.4%)
  Subjects with Serum Creatinine >1 × ULN-[…] ULN: 16 (42.1%)
  Subjects with Serum Creatinine >3 × ULN-6 × ULN: 0
  Subjects with Serum Creatinine >6 × ULN: 0
  Subjects with Serum Creatinine >[…] ULN-3 × ULN: 2 (5.3%)
  Subjects with WBC <1 GI/L: 1 (2.6%)
  Subjects with WBC <2-1 GI/L: 13 (34.2%)
  Subjects with WBC <3-2 GI/L: 7 (18.4%)
  Subjects with WBC <LLN-3 GI/L: 6 (15.8%)
  Subjects Receiving Aldesleukin: 0
  Subjects Receiving Blood and Related Products: 0
  Subjects Receiving Blood, Whole: 0
  Subjects Receiving Filgrastim: 11 (28.2%)
  Subjects Receiving Granulocyte Colony Stimulating Factor: 1 (2.6%)
  Subjects Receiving Pegfilgrastim: 1 (2.6%)
  Subjects Receiving Platelets: 6 (15.4%)
  Subjects Receiving Red Blood Cells: 3 (7.7%)
  Subjects Receiving Red Blood Cells, Concentrated: 6 (15.4%)
  Subjects Receiving Sargramostim: 1 (2.6%)
Course of the study
  drug induced liver injury (DILI): No case of drug induced liver injury (DILI) clearly attributable to HDP-CDV
40 mg QW
  Subjects Receiving Aldesleukin: 0
  Subjects Receiving Blood and Related Products: 1 (4.0%)
  Subjects Receiving Blood, Whole: 0
  Subjects Receiving Filgrastim: 4 (16.0%)
  Subjects Receiving Granulocyte Colony Stimulating Factor: 0
  Subjects Receiving Pegfilgrastim: 0
  Subjects Receiving Platelets: 5 (20.0%)
  Subjects Receiving Red Blood Cells: 0
  Subjects Receiving Red Blood Cells, Concentrated: 2 (8.0%)
  Subjects Receiving Sargramostim: 0
100 mg BIW
  Subjects Receiving Aldesleukin: 0
  Subjects Receiving Blood and Related Products: 0
  Subjects Receiving Blood, Whole: 0
  Subjects Receiving Filgrastim: 11 (22.0%)
  Subjects Receiving Granulocyte Colony Stimulating Factor: 0
  Subjects Receiving Pegfilgrastim: 2 (4.0%)
  Subjects Receiving Platelets: 6 (12.0%)
  Subjects Receiving Red Blood Cells: 3 (6.0%)
  Subjects Receiving Red Blood Cells, Concentrated: 6 (12.0%)
  Subjects Receiving Sargramostim: 0
Entire study duration
  relation of deaths to study drug: None of the deaths were considered by the Investigators as related to HDP-CDV
Dose 100 mg BIW
  Cause of death: Gut GVHD
Dose 200 mg BIW
  Cause of death: GI bleed
Range across cohorts
  average increase in ALT from Baseline at time of maximum ALT increase: 1.53 to 3.55 fold
Regardless of dose and dosing frequency
  nephrotoxicity or myelotoxicity: no indication of nephrotoxicity or myelotoxicity
